Our source for the histopathological changes values is US20030109432A1, “Anticancer polypeptide-metal complexes and compositions, methods of making, and methods of using same” (priority 2001, published 2003).

The assay deals with tumor tissues (breast). In words: Immunohistopathology of tumor tissue after treatment. In kind it is in vivo. The note with it: 48 hours post treatment, FIG. 7. The text has this:
After treatment with either cisplatin or the platinum peptide complex, tumor tissues (breast) were dissected and embedded in […]. The tumor tissue was fixed in […] and stained for cellular target expression.

On to `[NH2][Pt]([NH2])([Cl])[Cl]` [CDDP, cisplatin], for which the histopathological changes result was “marked necrosis and apoptosis”. As for “cis-1,2-DACH—Pt (II)-poly(glutamic/aspartic acid) [PDDP]”, the histopathological changes entry was “marked necrosis and apoptosis”.
